Test results as given in patent US11911356B2, “Regulation of mutant TERT by BRAF V600E/map kinase pathway through FOS/GABP in human cancer” (THE JOHNS HOPKINS UNIVERSITY, priority 2017, dated 2024).

Experiments:
TERT promoter = TERT promoter luciferase reporter assay in K1 cells; format: cell-based, human; conditions: K1 cells harboring BRAF V600E; PLX4032 0.5 uM
Experimental: FIG. 2A-2G. BRAF V600E/MAPK pathway regulated TERT expression. (FIG. 2A) TERT expression was analyzed by qRT-PCR in cells treated with 0.5 uM PLX4032 or 0.2 uM AZD6244 for 24 hours (upper panel). The corresponding levels of phosphorylated ERK (p-ERK), total ERK (t-ERK), and beta-actin were detected by Western blotting (lower panel). The relative TERT mRNA expression levels were normalized to the DMSO control group. (FIG. 2B) Luciferase reporting assay of TERT promoter activities in K1 cells treated with DMSO or PLX4032 (0.5 uM). (FIG. 2C, 2D) Specific shRNA against BRAF were used to knock down BRAF in thyroid cancer cell lines BCPAP and K1 and melanoma cell line A375. Scramble shRNA was used as control. Cells were then subjected to Western blotting (FIG. 2C) and qRT-PCR (FIG. 2D). […]
For promoter activity assay, cells were seeded in triplicate into a 24-well plate and then transfected with 300 ng pGL3 plasmids containing the TERT, GAPBA, or GABPB promoter, together with 12 ng Renilla luciferase (pRL-TK) plasmid (normalizing control) using Lipofectamine 3000 (Invitrogen). At 24 hours after the transfection, cells were lysed and luciferase activities were measured using the Dual-Luciferase Reporter Assay System (Promega). Results were presented as relative luciferase activities, which were obtained by dividing firefly luciferase values with Renilla luciferase values for each set of reading.

TERT expression = TERT expression by qRT-PCR in human cancer cell lines treated with inhibitors; format: cell-based; conditions: for TERT expression: 0.5 uM PLX4032, 24 hours
Experimental: FIG. 2A-2G. BRAF V600E/MAPK pathway regulated TERT expression. (FIG. 2A) TERT expression was analyzed by qRT-PCR in cells treated with 0.5 uM PLX4032 or 0.2 uM AZD6244 for 24 hours (upper panel). The corresponding levels of phosphorylated ERK (p-ERK), total ERK (t-ERK), and beta-actin were detected by Western blotting (lower panel). The relative TERT mRNA expression levels were normalized to the DMSO control group. (FIG. 2B) Luciferase reporting assay of TERT promoter activities in K1 cells treated with DMSO or PLX4032 (0.5 uM). (FIG. 2C, 2D) Specific shRNA against BRAF were used to knock down BRAF in thyroid cancer cell lines BCPAP and K1 and melanoma cell line A375. Scramble shRNA was used as control. Cells were then subjected to Western blotting (FIG. 2C) and qRT-PCR (FIG. 2D). (FIG. 2E) Sequencing of the BRAF exon-15 in the parental and heterozygous BRAF-V600E knock-in SW48 cells. BRAF V600E was knocked in on one allele of BRAF by rAAV technology through homologous recombination and Cre recombinase of the Neo cassette. (FIG. 2F) Western blotting analyses of phosphorylation of ERK (p-ERK), total ERK (t-ERK), BRAF, and beta-actin in the parental and BRAF-V600E knock-in SW48 cells. (FIG. 2G) TERT promoter luciferase reporter assay in SW48 cells with/without BRAF V600E knock-in. **P<0.01, ***P<0.001, by 2-tailed Student's t test. P values are for the comparison of the indicated condition with DMSO (FIG. 2B), scramble (FIG. 2D), or BRAF-WT groups (FIG. 2G). All the values represent the average standard deviation (SD) of triplicate samples from a typical experiment. All the experiments were performed three times with similar results.
FIG. 3A-3C. MYC regulated TERT expression in a TERT promoter mutation-independent manner. (FIG. 3A) The four indicated cancer cell lines harboring BRAF V600E mutation were treated with 0.5 uM PLX4032 and/or 10 nM MYC-specific siRNA (siMYC) for 24 hours, which were then subjected to Western blotting (upper panel) and qRT-PCR (lower panel). The relative TERT mRNA expression was normalized to the control group. (FIG. 3B, 3C) Parental and BRAF V600E knock-in SW48 cells were treated with control siRNA (siControl) or MYC-specific siRNA (siMYC, 10 nM) for 48 h, followed by Western blotting (FIG. 3B) and luciferase reporter assays (FIG. 3C). *P<0.05, **P<0.01, ***P<0.001, by 2-tailed Student's t test. n.s., not significant. All the values represent the average standard deviation (SD) of triplicate samples from a typical experiment. Similar results were obtained in two additional independent experiments.
FIG. 9A-9B. Summarized effects of PLX4032 (FIG. 9A) and AZD6244 (FIG. 9B) on TERT mRNA expression. Each bar represents the average+SD of the cells with the same genotypes as follows: BRAF-mut and TERT-mut cell lines: BCPAP, K1, OCUT1, A375, and M14; BRAF-mut and TERT-wt cell lines: SK-MEL-1, SK-MEL-3, and RKO; BRAF-wt and TERT-mut cell lines: TPC1, KAT18, C643, CHL-1, SK-MEL-2, and Mewo; BRAF-wt and TERT-wt cell lines: FB1, WRO, and HTORI3. Compared with the corresponding control of DMSO, **P<0.01, ***P<0.001, by independent t-test.
The BRAF V600E-specific inhibitor PLX4032 (#S1267) and the MEK1 inhibitor AZD6244 (#S1008) were purchased from Selleck Chemicals (Houston, TX), dissolved in DMSO with a stock concentration of 10 mM and stored at −20° C. PLX4032 and AZD6244 were used to treat cells for 24 hours at 0.5 μM and 0.2 μM, respectively, where indicated in the manuscript. DMSO was used as the vehicle control.
Total RNA was extracted from cultured cells using the TRIzol reagent (#15596-018; Ambion, Life Technologies, Carlsbad, CA) and reverse-transcribed to cDNA using the SuperScript III First-Strand Synthesis System (#18080-051; Invitrogen, Life Technologies, Carlsbad, CA). Gene expression was analyzed in triplicate using FastStart Universal SYBR Green Master with ROX (#04913850001; Roche Applied Science, Indianapolis, IN) on the Applied Biosystems 7900HT Fast Real-Time PCR System. […]

Which results are given for `CCCS(=O)(=O)Nc1ccc(F)c(C(=O)c2c[nH]c3ncc(-c4ccc(Cl)cc4)cc23)c1F` [PLX4032]?
activities of the mutated TERT promoter (C228T or C250T) (TERT promoter): dramatically reduced; activity of the wild-type TERT promoter (TERT promoter): limited effect; TERT expression (TERT expression; RKO and SK-MEL-3 cells, wild-type TERT promoter): moderate level; TERT expression (TERT expression; all the cells harboring BRAF mutation (FIG. 3A)): decreased TERT expression; TERT expression after siRNA knockdown of MYC (TERT expression; cells harboring TERT promoter mutations, 0.5 uM PLX4032 with 10 nM siMYC, 24 hours): could further inhibit TERT expression; TERT expression (TERT expression; cells harboring both BRAF V600E and TERT promoter mutations): dramatically inhibited TERT expression; TERT expression (TERT expression; cells harboring the wild-type TERT promoter): limited effect; TERT expression (TERT expression; cells harboring wild-type BRAF): no inhibitory effect; TERT expression (TERT expression; wild-type BRAF cell lines, especially TERT mutant cells (KAT18, C643 and CHL-1)): increase in TERT expression
